Experiments:
HRAS wild-type protein = HRAS wild-type protein (Homo sapiens, UniProt P01112); test: Binding to HRAS by surface plasmon resonance (SPR), KD and KD ratio to KRAS
How it was run: (§1)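 Captured GDP-RAS (~100–300 RU) was exposed to increasing compound concentrations, 75 s per step, in running buffer with 10 µM GDP, 10 mM MgCl2 and 4% DMSO at pH 7.4.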

[1] = test system: human lung cancer strain NCI-H441; assay type: cell-based
How it was run: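 Step one: dispense the test compound in serial DMSO dilutions. Step three: add the reagent and measure […].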

[2] = biological target: GDP-bound KRAS wild-type protein (Homo sapiens, UniProt P01116); test: Binding to KRAS by surface plasmon resonance (SPR), dissociation constant KD
How it was run: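 Affinity is measured by surface plasmon resonance at 30°C against captured, GDP-loaded RAS carrying a biotinylated Avi tag. Compounds are titrated by single-cycle kinetics, and KD comes from a 1:1 fit.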

[3] = biological target: GDP-bound NRAS wild-type protein (Homo sapiens, UniProt P01111); test: Binding to NRAS by surface plasmon resonance (SPR), KD and KD ratio to KRAS
How it was run: as §1

[4] = ratio of KD for HRAS wild-type protein to KD for KRAS
[5] = ratio of KD for GDP-bound NRAS wild-type protein to KD for KRAS
[6] = ratio of the KD value with respect to HRAS wild-type protein to the KD value with respect to KRAS
[7] = Single Cycle Kinetics, 1:1 binding model
[8] = ratio of the KD value with respect to GDP-bound NRAS wild-type protein to the KD value with respect to KRAS
[9] = ratio of KD value for HRAS wild-type protein to KD value for KRAS (SPR)
[10] = ratio of KD value for GDP-bound NRAS wild-type protein to KD value for KRAS (SPR)

Chain of GDP-bound NRAS wild-type protein (P01111 whole entry): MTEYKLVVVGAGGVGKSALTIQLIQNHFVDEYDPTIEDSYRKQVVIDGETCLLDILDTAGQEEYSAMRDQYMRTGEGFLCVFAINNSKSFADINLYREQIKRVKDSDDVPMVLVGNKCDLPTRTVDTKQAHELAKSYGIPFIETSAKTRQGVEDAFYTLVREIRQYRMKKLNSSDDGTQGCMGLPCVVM
Chain of GDP-bound KRAS wild-type protein (P01116 1-188 isoform P01116-2): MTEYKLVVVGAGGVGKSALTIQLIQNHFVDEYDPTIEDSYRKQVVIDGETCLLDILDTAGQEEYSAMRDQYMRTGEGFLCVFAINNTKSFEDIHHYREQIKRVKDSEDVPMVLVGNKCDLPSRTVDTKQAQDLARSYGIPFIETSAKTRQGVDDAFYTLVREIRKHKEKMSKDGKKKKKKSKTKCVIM
Chain of HRAS wild-type protein (P01112 whole entry): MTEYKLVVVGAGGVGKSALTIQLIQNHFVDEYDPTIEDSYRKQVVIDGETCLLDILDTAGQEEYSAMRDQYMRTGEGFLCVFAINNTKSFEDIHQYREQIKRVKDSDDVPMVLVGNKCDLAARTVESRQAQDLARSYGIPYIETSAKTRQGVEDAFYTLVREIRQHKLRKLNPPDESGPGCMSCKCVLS

Row | IC50 [1] | Kd ([2]; 1:1 binding model) | Kd [2, 7] | Kd ([2]; Single Cycle Kinetics) | SMILES | HRAS /KRAS (HRAS wild-type protein; [4]) | NRAS /KRAS [3, 5] | HRAS /KRAS (HRAS wild-type protein; [6]) | NRAS /KRAS [3, 8] | HRAS /KRAS (HRAS wild-type protein; [9]) | NRAS /KRAS [3, 10]
1 | 220 nM | 1.1 nM | – | – | C#CC[C@H]1C(=O)N[C@@H]([C@@H](C)CC)C(=O)N(C)CC(=O)N(C)[C@H]2C/C=C\CCN(C2=O)[C@@H](Cc2ccc(C(F)(F)F)cc2)C(=O)N(C)CC(=O)N[C@@H](CCc2ccc(C(F)(F)F)c(OC)c2)C(=O)N2C[C@H](C)[C@H]2C(=O)NC2(CCC2)C(=O)N(C)[C@@H](C2CCCC2)C(=O)N(C)[C@H](C(=O)N2CCOCC2)CC(=O)N1C [PP3133] | A (a compound having 10 or more and less than 20 is denoted as A) | A (a compound having 10 or more and less than 20 is denoted as A) | – | – | – | –
2 | 55.4 nM | 1.1 nM | – | – | CCC(CC)[C@H]1C(=O)N(C)[C@H](C(=O)N(C)C)CC(=O)N(C)[C@@H](COC)C(=O)N[C@@H]([C@@H](C)CC)C(=O)N(C)CC(=O)N(C)[C@H]2C/C=C\CCN(C2=O)[C@@H](Cc2ccc(C)cc2)C(=O)N(C)CC(=O)N[C@@H](CCc2cc(F)c(C(F)(F)F)c(F)c2)C(=O)N2CCCC[C@H]2C(=O)NC2(CC(C)(C)C2)C(=O)N1C [PP2922] | A (a compound having 10 or more and less than 20 is denoted as A) | AA (a compound having 20 or more is denoted as AA) | – | – | – | –
3 | 5.6 nM | 0.059 nM | – | – | CCO[C@@H]1C[C@H]2C(=O)NC3(CC(C)(C)C3)C(=O)N(C)[C@@H](C3CCCC3)C(=O)N(C)[C@H](C(=O)N(C)C)CC(=O)N(C)[C@@H]([C@@H](C)OC)C(=O)N[C@@H]([C@@H](C)CC)C(=O)N(C)CC(=O)N(C)[C@H]3C/C=C\CCN(C3=O)[C@@H](Cc3ccc(C)cc3)C(=O)N(C)CC(=O)N[C@@H](CCc3ccc(C(F)(F)F)c(OC)c3)C(=O)N2C1 [PP3207] | A (a compound having 10 or more and less than 20 is denoted as A) | A (a compound having 10 or more and less than 20 is denoted as A) | – | – | – | –
4 | 178 nM | – | 1.8 nM | – | CCC[C@H]1C(=O)N[C@@H](C2CCC2)C(=O)N(C)CC(=O)N(C)[C@H]2C/C=C\CCN(C2=O)[C@@H](Cc2ccc(C)cc2)C(=O)N(C)CC(=O)N[C@@H](CCc2ccc(C(F)(F)F)c(F)c2)C(=O)N2C[C@H](OCC)C[C@H]2C(=O)NC2(CC(C)(C)C2)C(=O)N(C)[C@@H](C2CCC2)C(=O)N(C)[C@H](C(=O)N(C)C)CC(=O)N1C [PP2242] | – | – | A (a compound having 10 or more and less than 20 is denoted as A) | A (a compound having 10 or more and less than 20 is denoted as A) | – | –
5 | 38.5 nM | – | – | 0.19 nM | CCO[C@@H]1C[C@H]2C(=O)NC3(CCC3)C(=O)N(C)[C@@H](C3CCCC3)C(=O)N(C)[C@H](C(=O)N(C)C)CC(=O)N(C)[C@@H](CC)C(=O)N[C@@H]([C@@H](C)CC)C(=O)N(C)CC(=O)N(C)[C@H]3CCCCCN(C3=O)[C@@H](Cc3ccc(F)cc3Cl)C(=O)N(C)CC(=O)N[C@@H](CCc3cc(F)c(C(F)(F)F)c(F)c3)C(=O)N2C1 [PP0908] | B (a compound having 3 or more and less than 10 is denoted as B) | B (a compound having 3 or more and less than 10 is denoted as B) | – | – | – | –
6 | 95.2 nM | – | 2.8 nM | – | CCO[C@@H]1C[C@H]2C(=O)NC3(CCC3)C(=O)N(C)[C@@H](C(CC)CC)C(=O)N(C)[C@H](C3CCC3)CC(=O)N(C)[C@@H](CC3CC3)C(=O)N[C@@H]([C@@H](C)CC)C(=O)N(C)CC(=O)N(C)[C@H]3C/C=C\CCN(C3=O)[C@@H](Cc3ccc(C(F)(F)F)cc3)C(=O)N(C)CC(=O)N[C@@H](CCc3cc(F)c(C(F)(F)F)c(F)c3)C(=O)N2C1 [PP1636] | – | – | – | – | A (a compound having 10 or more and less than 20 is denoted as A) | A (a compound having 10 or more and less than 20 is denoted as A)
7 | 17.2 nM | 0.33 nM | – | – | CCC[C@H]1C(=O)N[C@@H]([C@@H](C)CC)C(=O)N(C)CC(=O)N(C)[C@H]2C/C=C\CCN(C2=O)[C@@H](Cc2ccc(C)cc2)C(=O)N(C)CC(=O)N[C@@H](CCc2ccc3sc(C)c(C)c3c2)C(=O)N2C[C@H](OCC)C[C@H]2C(=O)NC2(CC(C)(C)C2)C(=O)N(C)[C@@H](C2CCCC2)C(=O)N(C)[C@H](C(=O)N(C)C)CC(=O)N1C [PP2891] | B (a compound having 3 or more and less than 10 is denoted as B) | A (a compound having 10 or more and less than 20 is denoted as A) | – | – | – | –
8 | 91.6 nM | – | 0.23 nM | – | CC[C@@H]1C[C@H]2C(=O)NC3(CCCC3)C(=O)N(C)[C@@H](C3CCCC3)C(=O)N(C)[C@H](C(=O)N(C)C)CC(=O)N(C)[C@@H](CC(C)C)C(=O)N[C@@H]([C@@H](C)CC)C(=O)N(C)CC(=O)N(C)[C@H]3C/C=C\CCN(C3=O)[C@@H](Cc3ccc(C)cc3)C(=O)N(C)CC(=O)N[C@@H](CCc3cc(F)c(C(F)(F)F)c(F)c3)C(=O)N2C1 [PP2191] | – | – | B (a compound having 3 or more and less than 10 is denoted as B) | A (a compound having 10 or more and less than 20 is denoted as A) | – | –
9 | 65.5 nM | 1.9 nM | – | – | CCC(CC)[C@H]1C(=O)N(C)[C@H](C(=O)N(C)C)CC(=O)N(C)[C@@H](COC)C(=O)N[C@@H]([C@@H](C)CC)C(=O)N(C)CC(=O)N(C)[C@H]2C/C=C\CCN(C2=O)[C@@H](Cc2ccc(C)cc2)C(=O)N(C)CC(=O)N[C@@H](CCc2ccc(C(F)(F)F)c(Cl)c2)C(=O)N2CCCC[C@H]2C(=O)NC2(CC(C)(C)C2)C(=O)N1C [PP2931] | A (a compound having 10 or more and less than 20 is denoted as A) | A (a compound having 10 or more and less than 20 is denoted as A) | – | – | – | –
10 | 18.2 nM | 0.41 nM | – | – | CCC[C@H]1C(=O)N[C@@H](C2CCCC2)C(=O)N(C)CC(=O)N(C)[C@H]2C/C=C\CCN(C2=O)[C@@H](Cc2ccc(C)cc2)C(=O)N(C)CC(=O)N[C@@H](CCc2ccc(C(F)(F)F)c(OC)c2)C(=O)N2CC3(CC3)C[C@H]2C(=O)NC2(CC(C)(C)C2)C(=O)N(C)[C@@H](CC(C)(C)C)C(=O)N(C)[C@H](C(=O)N(C)C)CC(=O)N1C [PP3010] | B (a compound having 3 or more and less than 10 is denoted as B) | B (a compound having 3 or more and less than 10 is denoted as B) | – | – | – | –
11 | 36 nM | – | 0.083 nM | – | CC[C@H](C)[C@@H]1NC(=O)[C@H](CC(C)C)N(C)C(=O)C[C@@H](C(=O)N(C)C)N(C)C(=O)[C@H](C2CCCC2)N(C)C(=O)C2(CCC2)NC(=O)[C@@H]2C[C@H](C)CN2C(=O)[C@H](CCc2ccc(C(F)(F)F)c(OC)c2)NC(=O)CN(C)C(=O)[C@H](Cc2ccc(C)cc2)N2CC/C=C\C[C@@H](C2=O)N(C)C(=O)CN(C)C1=O [PP1865] | – | – | – | – | B (a compound having 3 or more and less than 10 is denoted as B) | A (a compound having 10 or more and less than 20 is denoted as A)
12 | 29.6 nM | – | 0.3 nM | – | CCC[C@@H]1C[C@H]2C(=O)NC3(CC(C)(C)C3)C(=O)N(C)[C@@H](C3CCCC3)C(=O)N(C)[C@H](C(=O)N(C)C)CC(=O)N(C)[C@@H](CCC)C(=O)N[C@@H]([C@@H](C)CC)C(=O)N(C)CC(=O)N(C)[C@H]3C/C=C\CCN(C3=O)[C@@H](Cc3ccc(C)cc3)C(=O)N(C)CC(=O)N[C@@H](CCc3ccc(C(F)(F)F)c(Cl)c3)C(=O)N2C1 [PP2214] | – | – | A (a compound having 10 or more and less than 20 is denoted as A) | A (a compound having 10 or more and less than 20 is denoted as A) | – | –
